“Also recorded” adds a separate entry of the source.

Assay [1] concerns AKT1, AKT2 and AKT3. Nature of the assay: Immunoblot of AKT isoform degradation in MDA-MB-468 cells. Type of assay: cell-based, human. As to conditions: 24-hour treatment. The method, then:
(§1) MDA-MB-468 (human breast cancer cell line) cells were maintained in RPMI 1640 (Wisent Bioproducts) supplemented with 10% FBS (Thermo Fisher Scientific) and MCF10A (human breast epithelial cell line) cells were maintained in Dulbecco's modified Eagle's medium (DMEM)/Ham's F12 (Wisent Bioproducts) supplemented with 5% equine serum (Fisher), insulin (10 μg/ml) (Life Technologies), hydrocortisone (500 ng/ml) (Sigma-Aldrich®), epidermal growth factor (20 ng/ml) (R&D Systems), and cholera toxin (100 ng/ml) (List Biological Lab). MDA-MB-468 and MCF10A cells were seeded at 250,000 cells/mL and 200,000 cells/mL, respectively. The following day cells were treated with inventive bifunctional compounds. After 24 hours, cells were washed with phosphate-buffered saline at 4° C. and lysed in radioimmunoprecipitation assay (RIPA) buffer (150 mM Tris-HCl, 150 mM NaCl, 0.5% (w/v) sodium deoxycholate, 1% (v/v) NP-40, pH 7.5) containing 0.1% (w/v) sodium dodecyl sulfate, 1 mM sodium pyrophosphate, 20 mM sodium fluoride, 50 nM calyculin, and 0.5% (v/v) protease inhibitor cocktail (Sigma-Aldrich®)). Cell extracts were precleared by centrifugation at 14,000 rpm for 10 minutes at 4° C. The Bio-Rad DC protein assay was used to assess protein concentration, and sample concentration was normalized using SDS sample buffer. […] Images were stored and analyzed using ImageStudio™ (LI-COR®) software. […]
(A western blot detects proteins with antibodies after separation by electrophoresis.)

Assay [2] addresses T1, AKT1 (Homo sapiens, UniProt P31749).
T1 construct: purchased Life Technologies (Invitrogen)
Nature of the assay: Z'-LYTE assay (AKT binding assay), AKT1. As to conditions: 10-point dose response, Km ATP, read-out: Biochemical Binding AKT1. The method, then:
(§2) Z′-LYTE assays (catalog number PV3193, Invitrogen™) were conducted for AKT1, AKT2, AKT3, PKG1, S6K1, PKN1, βMSK2, and Haspin at Life Technologies™ in a 10-point dose response using Km ATP concentrations. LanthaScreen™ assays were conducted for RET (V804M) in a 10-point dose response at Life Technologies™.

The target of assay [3] is T2, AKT3 (Homo sapiens, UniProt Q9Y243).
T2 construct: purchased Life Technologies (Invitrogen)
T2 sequence (Q9Y243 whole entry): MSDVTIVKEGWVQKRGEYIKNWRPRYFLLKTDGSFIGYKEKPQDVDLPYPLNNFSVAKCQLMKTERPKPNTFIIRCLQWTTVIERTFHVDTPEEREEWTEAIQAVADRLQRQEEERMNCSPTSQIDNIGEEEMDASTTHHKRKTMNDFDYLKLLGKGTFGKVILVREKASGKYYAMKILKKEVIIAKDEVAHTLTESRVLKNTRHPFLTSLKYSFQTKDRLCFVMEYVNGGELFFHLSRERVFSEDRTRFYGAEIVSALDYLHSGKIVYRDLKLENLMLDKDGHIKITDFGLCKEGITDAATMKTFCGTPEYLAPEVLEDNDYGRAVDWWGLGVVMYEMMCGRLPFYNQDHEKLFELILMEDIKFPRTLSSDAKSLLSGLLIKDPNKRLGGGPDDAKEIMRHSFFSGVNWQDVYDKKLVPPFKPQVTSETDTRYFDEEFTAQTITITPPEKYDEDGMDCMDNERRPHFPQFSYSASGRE
Nature of the assay: Z'-LYTE assay (AKT binding assay), AKT3. As to conditions: 10-point dose response, Km ATP, read-out: Biochemical Binding AKT3. The method, then:
as §2

The test system of assay [4] is AKT1, AKT2 and AKT3. In words: Immunoblot of AKT isoform degradation in MCF10A cells. Format: cell-based, human. As to conditions: 24-hour treatment. The method, then: as §1
In assay [5] the target is T3, AKT2 (Homo sapiens, UniProt P31751).
T3 construct: purchased Life Technologies (Invitrogen)
T3 sequence (P31751 whole entry): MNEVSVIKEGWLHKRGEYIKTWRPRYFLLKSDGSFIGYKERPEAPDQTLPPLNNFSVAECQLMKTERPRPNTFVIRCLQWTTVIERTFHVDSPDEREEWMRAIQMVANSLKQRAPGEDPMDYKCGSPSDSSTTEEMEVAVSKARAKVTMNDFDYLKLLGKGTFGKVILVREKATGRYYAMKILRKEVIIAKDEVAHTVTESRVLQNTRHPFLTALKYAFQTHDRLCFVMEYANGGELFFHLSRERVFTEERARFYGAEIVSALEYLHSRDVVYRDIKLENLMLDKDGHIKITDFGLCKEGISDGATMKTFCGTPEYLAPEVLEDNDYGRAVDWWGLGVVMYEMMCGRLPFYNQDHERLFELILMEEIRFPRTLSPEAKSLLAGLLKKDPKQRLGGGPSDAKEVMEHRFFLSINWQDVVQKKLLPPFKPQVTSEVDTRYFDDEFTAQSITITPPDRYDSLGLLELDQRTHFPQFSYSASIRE
In words: Z'-LYTE assay (AKT binding assay), AKT2. As to conditions: 10-point dose response, Km ATP, read-out: Biochemical Binding AKT2. The method, then: as §2

Assay [6] deals with ZR-75-1 cells. In words: Growth inhibition rate (GR) assay in ZR-75-1 cells. Format: cell-based. As to conditions: 72-hour treatment (FIG. 6A). The text has this: FIG. 6A-FIG. 6F are a set of graphs that show growth inhibition rate (GR) values across concentrations in ZR-75-1 (FIG. 6A), T47D (FIG. 6B), LNCaP (FIG. 6C), MCF-7 (FIG. 6D), MDA-MB-468 (FIG. 6E), and HCC1937 (FIG. 6F) cells after 72-hour treatment with GDC-0068 (blue), inventive bifunctional compound 10 (red), bifunctional compound 10-Me (negative control) (green), and lenalidomide (orange). Error bars represent the standard deviation of three technical replicates.

T1 sequence (P31749 whole entry): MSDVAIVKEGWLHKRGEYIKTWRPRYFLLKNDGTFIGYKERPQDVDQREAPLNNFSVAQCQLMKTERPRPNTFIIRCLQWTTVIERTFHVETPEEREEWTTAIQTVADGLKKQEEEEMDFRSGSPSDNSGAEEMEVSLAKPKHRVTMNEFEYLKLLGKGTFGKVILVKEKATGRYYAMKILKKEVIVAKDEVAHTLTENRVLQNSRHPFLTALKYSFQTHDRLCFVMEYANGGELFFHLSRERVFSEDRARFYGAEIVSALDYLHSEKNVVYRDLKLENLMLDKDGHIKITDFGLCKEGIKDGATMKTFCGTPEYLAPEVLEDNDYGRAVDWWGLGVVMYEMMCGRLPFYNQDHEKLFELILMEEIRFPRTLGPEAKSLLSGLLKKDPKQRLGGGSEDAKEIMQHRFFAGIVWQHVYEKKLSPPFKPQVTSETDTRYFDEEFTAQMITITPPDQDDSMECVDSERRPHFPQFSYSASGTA

In the case of `Cc1ncsc1-c1ccc([C@H](C)NC(=O)[C@@H]2C[C@@H](O)CN2C(=O)[C@@H](NC(=O)CCOCCCNC[C@@H](C(=O)N2CCN(c3ncnc4c3[C@H](C)CC4)CC2)c2ccc(Cl)cc2)C(C)(C)C)cc1` [Compound 1, (2S,4R)-1-((S)-2-(3-(3-(((S)-2-(4-chlorophenyl)-3-(4-((R)-5-methyl-6,7-dihydro-5H-cyclopenta[d]pyrimidin-4-yl)piperazin-1-yl)-3-oxopropyl)amino)propoxy)propanamido)-3,3-dimethylbutanoyl)-4-hydroxy-N—((S)-1-(4-(4-methylthiazol-5-yl)phenyl)ethyl)pyrrolidine-2-carboxamide], the “Degradation of AKT isoforms” value is “degraded in MDA-MB-468 cells in a dose-dependent manner; also recorded: degraded in MDA-MB-468 cells (FIG. 3)” in assay [1] and “degraded in MCF10A cells in a dose-dependent manner” in assay [4]. The IC50 in assay [2] was 1.58 nM; in assay [3], 4.94 nM; in assay [5] it was 15.1 nM.

Turning to `C[C@@H]1C[C@@H](O)c2ncnc(N3CCN(C(=O)[C@H](CNCCCNC(=O)COc4cccc5c4C(=O)N(C4CCC(=O)NC4=O)C5=O)c4ccc(Cl)cc4)CC3)c21` (stereo partly drawn) [Compound 2, N-(3-(((S)-2-(4-chlorophenyl)-3-(4-((5R,7R)-7-hydroxy-5-methyl-6,7-dihydro-5H-cyclopenta[d]pyrimidin-4-yl)piperazin-1-yl)-3-oxopropyl)-amino)propyl)-2-((2-(2,6-dioxopiperidin-3-yl)-1,3-dioxoisoindolin-4-yl)oxy) acetamide], the IC50 in assay [2] was 3.93 nM; in assay [3], 20.4 nM; in assay [5], 31.4 nM.

For `C[C@@H]1C[C@@H](O)c2ncnc(N3CCN(C(=O)[C@H](CNCCOCCOCCNC(=O)COc4cccc5c4C(=O)N(C4CCC(=O)NC4=O)C5=O)c4ccc(Cl)cc4)CC3)c21` (stereo partly drawn) [Compound 4, N-(2-(2-(2-(((S)-2-(4-chlorophenyl)-3-(4-((5R,7R)-7-hydroxy-5-methyl-6,7-dihydro-5H-cyclopenta[d]pyrimidin-4-yl)piperazin-1-yl)-3-oxopropyl)amino)ethoxy)ethoxy)ethyl)-2-((2-(2,6-dioxopiperidin-3-yl)-1,3-dioxoisoindolin-4-yl)oxy)acetamide], in assay [2], the IC50 worked out at 6.97 nM.

Take `C[C@@H]1C[C@@H](O)c2ncnc(N3CCN(C(=O)[C@H](CNCCOCCNC(=O)COc4cccc5c4C(=O)N(C4CCC(=O)NC4=O)C5=O)c4ccc(Cl)cc4)CC3)c21` (stereo partly drawn) [Compound 5, N-(2-(2-(((S)-2-(4-chlorophenyl)-3-(4-((5R,7R)-7-hydroxy-5-methyl-6,7-dihydro-5H-cyclopenta[d]pyrimidin-4-yl)piperazin-1-yl)-3-oxopropyl)amino)ethoxy)ethyl)-2-((2-(2,6-dioxopiperidin-3-yl)-1,3-dioxoisoindolin-4-yl)oxy)acetamide]: the IC50 in assay [2] came to 3.4 nM.

As for `Cc1ncsc1-c1ccc([C@H](C)NC(=O)[C@@H]2C[C@@H](O)CN2C(=O)[C@@H](NC(=O)CCOCCOCCNC[C@@H](C(=O)N2CCN(c3ncnc4c3[C@H](C)C[C@H]4O)CC2)c2ccc(Cl)cc2)C(C)(C)C)cc1` [Compound 6, (2S,4R)-1-((2S,15S)-2-(tert-butyl)-15-(4-chlorophenyl)-16-(4-((5R,7R)-7-hydroxy-5-methyl-6,7-dihydro-5H-cyclopenta[d]pyrimidin-4-yl)piperazin-1-yl)-4,16-dioxo-7,10-dioxa-3,13-diazahexadecanoyl)-4-hydroxy-N—((S)-1-(4-(4-methylthiazol-5-yl)phenyl)ethyl)pyrrolidine-2-carboxamide], in assay [2], the IC50 was found to be 3.8 nM.

As for `C[C@@H]1C[C@@H](O)c2ncnc(N3CCN(C(=O)[C@H](CNCCCCCCCCC#Cc4cccc5c4CN(C4CCC(=O)NC4=O)C5=O)c4ccc(Cl)cc4)CC3)c21` (stereo partly drawn) [Compound 7, 3-(4-(10-(((S)-2-(4-chlorophenyl)-3-(4-((5R,7R)-7-hydroxy-5-methyl-6,7-dihydro-5H-cyclopenta[d]pyrimidin-4-yl)piperazin-1-yl)-3-oxopropyl)amino)dec-1-yn-1-yl)-1-oxoisoindolin-2-yl)piperidine-2,6-dione], the IC50 in assay [2] was 2.46 nM.

As to `C[C@@H]1C[C@@H](O)c2ncnc(N3CCN(C(=O)[C@H](CNCCCCc4cccc5c4C(=O)N(C4CCC(=O)NC4=O)C5=O)c4ccc(Cl)cc4)CC3)c21` (stereo partly drawn) [Compound 9, 4-(4-(((S)-2-(4-chlorophenyl)-3-(4-((5R,7R)-7-hydroxy-5-methyl-6,7-dihydro-5H-cyclopenta[d]pyrimidin-4-yl)piperazin-1-yl)-3-oxopropyl)amino)butyl)-2-(2,6-dioxopiperidin-3-yl)isoindoline-1,3-dione], the IC50 in assay [2] is 1.8 nM.

As for `C[C@@H]1C[C@@H](O)c2ncnc(N3CCN(C(=O)[C@H](CNCCCCCCCCCCc4cccc5c4CN(C4CCC(=O)N(C)C4=O)C5=O)c4ccc(Cl)cc4)CC3)c21` (stereo partly drawn) [Compound 10-Me, 3-(4-(10-(((S)-2-(4-chlorophenyl)-3-(4-((5R,7R)-7-hydroxy-5-methyl-6,7-dihydro-5H-cyclopenta[d]pyrimidin-4-yl)piperazin-1-yl)-3-oxopropyl)amino)decyl)-1-oxoisoindolin-2-yl)-1-methylpiperidine-2,6-dione], the “Anti-proliferative potency relative to compound 10” value in assay [6] was “significantly less potent”. In addition, the GR50 in assay [6] (Homo sapiens, read-out: GR50) came to 413 nM.

For the origin of these results see patent publication US12642857B2, “Degradation of AKT by conjugation of ATP-competitive AKT inhibitor GDC-0068 with E3 ligase ligands and methods of use” (DANA-FARBER CANCER INSTITUTE, INC., priority 2019, dated 2026).
